This is an account of results in ChEMBL document CHEMBL1697731, “Cheminformatics analysis of assertions mined from literature that describe drug-induced liver injury in different species” (Chem Res Toxicol, 2010).

Structures are written as SMILES.

Series [1] has as its system Hepatotoxicity. The experiment in a line: Literature-mined compound from Fourches et al multi-species drug-induced liver injury (DILI) dataset, effect in humans. Particulars: human.
Series [2] has as its system Hepatotoxicity. Description: Literature-mined compound from Fourches et al multi-species drug-induced liver injury (DILI) dataset, effect in rodents. Particulars: rodentia.
The subject of series [3] is Hepatotoxicity. Description: Literature-mined compound from Fourches et al multi-species drug-induced liver injury (DILI) dataset, effect in non-rodents.

Take `COC1=CC(=O)C[C@@H](C)[C@]12Oc1c(Cl)c(OC)cc(OC)c1C2=O` [GRISEOFULVIN]: the Hepatotoxicity result in series [1] is listed as “drug-induced liver injury reported”; in series [2] it was “drug-induced liver injury reported”; in series [3] it was “no drug-induced liver injury reported”.

Regarding `Cc1ccc(C(C)C)cc2c(C)ccc1-2` [GUAIAZULEN], the Hepatotoxicity result is “no drug-induced liver injury reported” in series [1], “drug-induced liver injury reported” in series [2] and “no drug-induced liver injury reported” in series [3].

Consider `CC(=O)O.N=C(N)N/N=C/c1c(Cl)cccc1Cl` [GUANABENZ ACETATE], for which the Hepatotoxicity entry in series [1] was “no drug-induced liver injury reported”; in series [2], “drug-induced liver injury reported”; in series [3], “no drug-induced liver injury reported”.

Consider `Cl.N=C(N)N` [GUANIDINE HYDROCHLORIDE], for which the Hepatotoxicity result in series [1] is “drug-induced liver injury reported”; in series [2] it was “drug-induced liver injury reported”; in series [3], “no drug-induced liver injury reported”.

In the case of `CC1=C(CCC(=O)O)c2cc3nc(cc4[nH]c(cc5[nH]c(cc1n2)c(C)c5C(C)O)c(C)c4C(C)O)C(C)=C3CCC(=O)O` (centres undefined) [HAEMAPORPHYRIN], the Hepatotoxicity result was “no drug-induced liver injury reported” in series [1], “drug-induced liver injury reported” in series [2] and “no drug-induced liver injury reported” in series [3].

As for `O=C(CC1NCCCC1O)Cn1cnc2cc(Br)c(Cl)cc2c1=O` (centres undefined) [HALOFUGINONE], the Hepatotoxicity entry in series [1] is on record as “drug-induced liver injury reported”; in series [2], “drug-induced liver injury reported”; in series [3], “no drug-induced liver injury reported”.

As to `O=C(CCCN1CCC(O)(c2ccc(Cl)cc2)CC1)c1ccc(F)cc1` [HALOPERIDOL], the Hepatotoxicity entry in series [1], in series [2] and in series [3] was “drug-induced liver injury reported” in each case.

In the case of `FC(F)(F)C(Cl)Br` (centres undefined) [HALOTHANE], the Hepatotoxicity result in series [1], in series [2] and in series [3] was “drug-induced liver injury reported” in each case.

In the case of `COc1ccc([C@@H]2CC(=O)c3c(O)cc(O[C@@H]4O[C@H](CO[C@@H]5O[C@@H](C)[C@H](O)[C@@H](O)[C@H]5O)[C@@H](O)[C@H](O)[C@H]4O)cc3O2)cc1O` [HESPERIDIN], the Hepatotoxicity entry in series [1] is recorded as “drug-induced liver injury reported”; in series [2], “drug-induced liver injury reported”; in series [3], “no drug-induced liver injury reported”.

For `Oc1c(Cl)cc(Cl)c(Cl)c1Cc1c(O)c(Cl)cc(Cl)c1Cl` [HEXACHLOROPHENE], the Hepatotoxicity result was “no drug-induced liver injury reported” in series [1], “drug-induced liver injury reported” in series [2] and “no drug-induced liver injury reported” in series [3].

`CC[C@H](c1ccc(O)cc1)[C@@H](CC)c1ccc(O)cc1` [HEXESTROL]: the Hepatotoxicity result was “no drug-induced liver injury reported” in series [1], “drug-induced liver injury reported” in series [2] and “no drug-induced liver injury reported” in series [3].

As for `CCCCC(CC)CN1CN(CC(CC)CCCC)CC(C)(N)C1` (centres undefined) [HEXETIDINE], the Hepatotoxicity entry in series [1] is given as “no drug-induced liver injury reported”; in series [2], “drug-induced liver injury reported”; in series [3], “no drug-induced liver injury reported”.

In the case of `CN1C(=O)NC(=O)C(C)(C2=CCCCC2)C1=O` (centres undefined) [HEXOBARBITAL], the Hepatotoxicity entry was “no drug-induced liver injury reported” in series [1], “drug-induced liver injury reported” in series [2] and “no drug-induced liver injury reported” in series [3].

In the case of `Cl.Cl.NCCc1c[nH]cn1` [HISTAMINE DIHYDROCHLORIDE], the results for the Hepatotoxicity result in series [1] (Liver), in series [2] (Liver) and in series [3] (Liver) were “no drug-induced liver injury reported”, “drug-induced liver injury reported” and “no drug-induced liver injury reported”, respectively.

Turning to `NNc1nncc2ccccc12` [HYDRALAZINE], the Hepatotoxicity result in series [1] (Liver), in series [2] (Liver) and in series [3] (Liver) was “drug-induced liver injury reported” throughout.

With `NS(=O)(=O)c1cc2c(cc1Cl)NCNS2(=O)=O` [HYDROCHLOROTHIAZIDE], the values for the Hepatotoxicity entry in series [1], in series [2] and in series [3] were “drug-induced liver injury reported”, “no drug-induced liver injury reported” and “no drug-induced liver injury reported”, respectively.

Consider `CC(=O)OCC(=O)[C@@]1(O)CC[C@H]2[C@@H]3CCC4=CC(=O)CC[C@]4(C)[C@H]3[C@@H](O)C[C@@]21C` [HYDROCORTISONE ACETATE], for which the Hepatotoxicity entry in series [1] is listed as “no drug-induced liver injury reported”; in series [2] it was “drug-induced liver injury reported”; in series [3] it was “no drug-induced liver injury reported”.

For `C[C@]12CCC(=O)C=C1CC[C@@H]1[C@@H]2[C@@H](O)C[C@@]2(C)[C@H]1CC[C@]2(O)C(=O)CO` [HYDROCORTISONE], the Hepatotoxicity entry in series [1], in series [2] and in series [3] was “drug-induced liver injury reported” each time.

Take `Oc1ccc(O)cc1` [HYDROQUINONE]: the Hepatotoxicity result was “drug-induced liver injury reported” in series [1] (Liver), “drug-induced liver injury reported” in series [2] (Liver) and “no drug-induced liver injury reported” in series [3] (Liver).

Consider `NC(=O)NO` [HYDROXYUREA], for which the Hepatotoxicity result in series [1] is “drug-induced liver injury reported”; in series [2] it was “drug-induced liver injury reported”; in series [3], “no drug-induced liver injury reported”.

Take `OCCOCCN1CCN(C(c2ccccc2)c2ccc(Cl)cc2)CC1` (centres undefined) [HYDROXYZINE]: the Hepatotoxicity entry is given as “drug-induced liver injury reported” in series [1], “no drug-induced liver injury reported” in series [2] and “no drug-induced liver injury reported” in series [3].

On to `CNC(=O)[C@H]1O[C@@H](n2cnc3c(NCc4cccc(I)c4)ncnc32)[C@H](O)[C@@H]1O` [IB-MECA], for which the Hepatotoxicity result in series [1] is “no drug-induced liver injury reported”; in series [2] it was “drug-induced liver injury reported”; in series [3] it was “no drug-induced liver injury reported”.

On to `CC(C)Cc1ccc(C(C)C(=O)O)cc1` (centres undefined) [IBUPROFEN], for which the Hepatotoxicity entry is “drug-induced liver injury reported” in series [1], “drug-induced liver injury reported” in series [2] and “no drug-induced liver injury reported” in series [3].

`CC/C=C\C/C=C\C/C=C\C/C=C\C/C=C\CCCC(=O)O` [ICOSAPENT]: the figures for the Hepatotoxicity entry in series [1], in series [2] and in series [3] were “drug-induced liver injury reported”, “drug-induced liver injury reported” and “no drug-induced liver injury reported”, respectively.

As for `COC1=C(OC)C(=O)C(CCCCCCCCCCO)=C(C)C1=O` [IDEBENONE], the Hepatotoxicity result was “no drug-induced liver injury reported” in series [1], “drug-induced liver injury reported” in series [2] and “no drug-induced liver injury reported” in series [3].

`CC/C(=C(\c1ccc(I)cc1)c1ccc(OCCN2CCCC2)cc1)c1ccccc1` [IDOXIFENE]: the Hepatotoxicity result is “no drug-induced liver injury reported” in series [1], “drug-induced liver injury reported” in series [2] and “no drug-induced liver injury reported” in series [3].

As for `O=P1(NCCCl)OCCCN1CCCl` (centres undefined) [IFOSFAMIDE], the values for the Hepatotoxicity result in series [1], in series [2] and in series [3] were “drug-induced liver injury reported”, “no drug-induced liver injury reported” and “no drug-induced liver injury reported”, respectively.

`CNC(=O)[C@H](Cc1c[nH]c2ccccc12)NC(=O)[C@@H](CC(=O)NO)CC(C)C` [ILOMASTAT]: the values for the Hepatotoxicity entry in series [1], in series [2] and in series [3] were “no drug-induced liver injury reported”, “drug-induced liver injury reported” and “no drug-induced liver injury reported”, respectively.

Consider `CC#CCC(C)[C@H](O)/C=C/[C@@H]1[C@H]2C/C(=C/CCCC(=O)O)C[C@H]2C[C@H]1O` (some centres undefined) [ILOPROST], for which the figures for the Hepatotoxicity entry in series [1], in series [2] and in series [3] were “no drug-induced liver injury reported”, “drug-induced liver injury reported” and “no drug-induced liver injury reported”, respectively.

With `CS(=O)(=O)O.Cc1ccc(NC(=O)c2ccc(CN3CCN(C)CC3)cc2)cc1Nc1nccc(-c2cccnc2)n1` [IMATINIB MESYLATE], the Hepatotoxicity entry is listed as “drug-induced liver injury reported” in series [1], “drug-induced liver injury reported” in series [2] and “no drug-induced liver injury reported” in series [3].

`CN(C)CCCN1c2ccccc2CCc2ccccc21` [IMIPRAMINE]: the Hepatotoxicity result in series [1] is “drug-induced liver injury reported”; in series [2] it was “drug-induced liver injury reported”; in series [3], “no drug-induced liver injury reported”.

On to `C#CC1(O)CCC2C3CCC4=CC(=O)CCC4C3C(=C)CC21CC` (centres undefined) [IMPLANON], for which the figures for the Hepatotoxicity entry in series [1], in series [2] and in series [3] were “drug-induced liver injury reported”, “no drug-induced liver injury reported” and “no drug-induced liver injury reported”, respectively.

`Nc1cc(-c2ccncc2)c[nH]c1=O` [INAMRINONE]: the Hepatotoxicity entry in series [1] is “no drug-induced liver injury reported”; in series [2], “drug-induced liver injury reported”; in series [3], “no drug-induced liver injury reported”.
